Experimental data: ChEMBL document CHEMBL1134495, “3D-QSAR model of flavonoids binding at benzodiazepine site in GABAA receptors” (J Med Chem, 2001)

Target: GABA-A receptor; anion channel
Assay: Binding affinity towards benzodiazepine site in GABAA receptor
Format: protein-complex assay

Row | Structure (SMILES) | -Log Ki
1 | O=c1cc(-c2cccc([N+](=O)[O-])c2)oc2ccc([N+](=O)[O-])cc12 | 7.92
2 | COc1ccc(-c2cc(=O)c3cc(Br)ccc3o2)cc1 | 5.68
3 | O=c1cc(-c2cccc(F)c2)oc2ccc(Br)cc12 | 7.38
4 | O=c1cc(-c2cccc(Cl)c2)oc2ccc(F)cc12 | 6.7
5 | O=c1cc(-c2ccc(Br)cc2)oc2ccc([N+](=O)[O-])cc12 | 7.6
6 | COc1ccc(-c2cc(=O)c3cc(Cl)ccc3o2)cc1 | 5.9
7 | O=c1cc(-c2ccc(F)cc2)oc2ccccc12 | 5.44
8 | O=c1cc(-c2cccc(F)c2)oc2ccccc12 | 5.45
9 | O=c1cc(-c2cccc([N+](=O)[O-])c2)oc2ccc(Br)cc12 | 9
10 | O=c1cc(-c2cccc(Br)c2)oc2ccc(Cl)cc12 | 7.64
11 | O=c1cc(-c2ccc(F)cc2)oc2ccc(Cl)cc12 | 6.74
12 | O=c1cc(-c2cccc(Br)c2)oc2ccc(Br)cc12 | 7.72
13 | O=c1cc(-c2ccc(F)cc2)oc2ccc(F)cc12 | 5.6
14 | O=c1cc(-c2ccc([N+](=O)[O-])cc2)oc2ccc(Br)cc12 | 6.7
15 | O=c1cc(-c2cccc(Br)c2)oc2ccc(F)cc12 | 6.63
16 | O=c1cc(-c2cccc(Br)c2)oc2ccccc12 | 6.38
17 | O=c1cc(-c2cccc(F)c2)oc2ccc(Cl)cc12 | 6.93
18 | O=c1cc(-c2cccc([N+](=O)[O-])c2)oc2ccc(F)cc12 | 6.74
19 | O=c1cc(-c2cccc(O)c2)oc2ccc(Cl)cc12 | 6.07
20 | O=c1cc(-c2cccc(F)c2)oc2ccc(F)cc12 | 6.04
21 | O=c1cc(-c2ccccc2)oc2c(Br)c(O)c(Br)c(O)c12 | 6.15

Row | Structure (SMILES) | -Log Ki
22 | O=c1cc(-c2ccccc2F)oc2ccc(Br)cc12 | 6.42
23 | O=c1cc(-c2ccccc2F)oc2ccc(Cl)cc12 | 6.38
24 | O=c1cc(-c2cccc(Cl)c2)oc2ccccc12 | 6.21
25 | O=c1cc(-c2ccccc2[N+](=O)[O-])oc2ccc(Br)cc12 | 6.68
26 | O=c1cc(-c2cccc(O)c2)oc2ccc(Br)cc12 | 6.22
27 | O=c1cc(-c2cccc(Cl)c2)oc2ccc(Cl)cc12 | 7.64
28 | O=c1cc(-c2ccccc2Cl)oc2cc(O)cc(O)c12 | 5.1
29 | O=c1cc(-c2cccc(O)c2)oc2ccc(F)cc12 | 5.6
30 | O=c1cc(-c2cccc(Cl)c2)oc2ccc(Br)cc12 | 7.77
31 | O=c1cc(-c2cccc([N+](=O)[O-])c2)oc2ccc(Cl)cc12 | 8.1
32 | O=c1cc(-c2ccc(F)cc2)oc2ccc(Br)cc12 | 6.94
33 | O=c1cc(-c2ccccc2F)oc2cc(O)cc(O)c12 | 5.1
34 | O=c1cc(-c2ccccc2)oc2ccc(Br)cc12 [6-BROMOFLAVONE] | 7.15
35 | O=c1cc(-c2ccc(O)cc2)oc2cc(O)cc(O)c12 [APIGENIN] | 5.52
36 | O=c1cc(-c2ccccc2)oc2cc(O)c(O)c(O)c12 [BAICALEIN] | 5.25
37 | O=C(O)[C@H]1O[C@@H](Oc2cc3oc(-c4ccccc4)cc(=O)c3c(O)c2O)[C@H](O)[C@@H](O)[C@@H]1O [BAICALIN] | 4.11
38 | O=c1cc(-c2ccccc2)oc2cc(O)cc(O)c12 [CHRYSIN] | 5.52
39 | O=c1cc(-c2ccccc2)oc2ccccc12 [FLAVONE] | 6
40 | COc1c(O)cc2oc(-c3ccc(O)cc3)cc(=O)c2c1O [HISPIDULIN] | 6
41 | O=c1cc(-c2ccc(O)cc2)oc2cc(O)c(O)c(O)c12 [SCUTELLAREIN] | 4.92
42 | COc1c(O)cc(O)c2c(=O)cc(-c3ccccc3)oc12 [WOGONIN] | 5.69
